Source: patent publication US11524968B2, “Heterocyclic compound as a protein kinase inhibitor” (HK inno.N Corporation, priority 2017, dated 2022)

The compounds below were run against JAK1 (Homo sapiens (Human), UniProt P23458) (assay: Analysis of JAK1 activity inhibition ability (ADP-Glo Kinase Assay)). Details: JAK1 enzyme, ADP-Glo luminescence, ATP 250 uM, IRS-itide substrate, 30° C. 40 minutes; read-out: IC50.
Type: biochemical
Procedure: Test Example 1: Analysis of JAK1 Activity Inhibition Ability of Compound of Formula 1 (ADP-Glo™ Kinase Assay)
A JAK inhibition ability of a compound according to the present invention was identified as follows.
A control material and a test material were prepared for each concentration, in such a way that they were diluted by means of DMSO. At the same time, ATP (250 uM) and JAK substrate (JAK1, IRS-itide 40 ng/mL) were prepared, in such a way that they were diluted by means of kinase buffer (40 mM Tris-HCl pH 7.5, 20 mM MgCl2, 0.5 mg/mL BSA, 50 uM DTT).
A test drug for each concentration, substrate, ATP and JAK enzyme were mixed in an eppendorf tube, and reacted in a 30° C. incubator for 40 minutes.
ADP-Glo™ reagent contained in ADP-Glo™ Kinase Enzyme System (Promega, USA, V9571) was added into each eppendorf tube, and reacted in a 30° C. incubator for 40 minutes. A kinase detection reagent contained in ADP-Go™ Kinase Enzyme System was inserted into the eppendorf tube, then an integration time was set to 1 second by using Wallac Victor 2™, then luminescence was measured, and then JAKs phosphorylation inhibition ability of the test material was analyzed. The concentration of the compound, which causes 50% of the JAK enzyme activity inhibition in comparison With the control group, was determined as IC50 (nM) of an inhibitor, wherein the results thereof are shown in a following table 1.

Chain of JAK1 (P23458 whole entry): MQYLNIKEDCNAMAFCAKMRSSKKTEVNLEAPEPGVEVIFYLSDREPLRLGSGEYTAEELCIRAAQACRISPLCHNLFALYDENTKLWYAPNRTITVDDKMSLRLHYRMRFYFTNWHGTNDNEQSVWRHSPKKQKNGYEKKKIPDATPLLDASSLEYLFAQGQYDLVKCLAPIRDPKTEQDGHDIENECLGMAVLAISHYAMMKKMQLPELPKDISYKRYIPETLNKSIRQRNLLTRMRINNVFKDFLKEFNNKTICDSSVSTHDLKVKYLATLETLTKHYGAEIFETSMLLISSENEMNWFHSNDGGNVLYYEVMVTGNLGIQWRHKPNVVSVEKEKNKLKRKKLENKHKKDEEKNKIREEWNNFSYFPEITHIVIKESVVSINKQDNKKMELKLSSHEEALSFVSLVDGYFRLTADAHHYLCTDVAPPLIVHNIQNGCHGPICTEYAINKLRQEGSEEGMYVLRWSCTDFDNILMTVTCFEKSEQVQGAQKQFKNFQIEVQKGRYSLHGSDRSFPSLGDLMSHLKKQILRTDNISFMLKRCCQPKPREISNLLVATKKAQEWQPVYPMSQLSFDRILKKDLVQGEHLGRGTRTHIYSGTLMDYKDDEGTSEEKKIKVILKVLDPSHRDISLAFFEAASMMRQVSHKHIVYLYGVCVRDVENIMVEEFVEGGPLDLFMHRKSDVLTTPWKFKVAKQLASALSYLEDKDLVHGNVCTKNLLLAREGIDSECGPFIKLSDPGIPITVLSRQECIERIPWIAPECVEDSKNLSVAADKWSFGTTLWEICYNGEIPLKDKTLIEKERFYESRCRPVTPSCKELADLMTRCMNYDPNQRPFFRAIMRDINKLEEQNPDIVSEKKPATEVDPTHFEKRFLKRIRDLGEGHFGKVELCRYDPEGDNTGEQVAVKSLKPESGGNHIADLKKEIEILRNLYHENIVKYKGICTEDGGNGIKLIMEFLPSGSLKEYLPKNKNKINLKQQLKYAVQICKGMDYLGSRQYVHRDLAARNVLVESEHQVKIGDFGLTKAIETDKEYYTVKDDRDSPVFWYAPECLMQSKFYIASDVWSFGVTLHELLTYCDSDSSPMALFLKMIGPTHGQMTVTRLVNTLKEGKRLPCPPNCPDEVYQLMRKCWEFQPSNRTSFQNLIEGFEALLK

| Structure (SMILES) | IC50 [nM] |
| --- | --- |
| O=C(Nc1cc(C2=CCN(C(=O)CCC(F)(F)F)C2)c2cc[nH]c2n1)C1CC1 [Example 429, N-(4-(1-(4,4,4-trifluorobutanoyl)-2,5-dihydro-1H-pyrrol-3-yl)-1H-pyrrolo[2,3-b]pyridin-6-yl)cyclopropanecarboxamide] | > 200 |
| CC(C)(C)OC(=O)N1CC=C(c2cc(NC(=O)C3CC3)nc3[nH]ccc23)CC1 [Example 454, tert-butyl 4-(6-(cyclopropanecarboxamido)-1H-pyrrolo[2,3-b]pyridin-4-yl)-3,6-dihydropyridine-1 (2H)-carboxylate] | 20 to 200 |
| N#CC1CCN(C(=O)Cc2ccc(-c3cc(NC(=O)C4CC4)nc4[nH]ccc34)cc2)CC1 [Example 548, N-(4-(4-(2-(4-cyanopiperidin-1-yl)-2-oxoethyl)phenyl)-1H-pyrrolo[2,3-b]pyridin-6-yl)cyclopropanecarboxamide] | 20 to 200 |
| Cc1cc(NS(=O)(=O)CC2CC2)ccc1-c1cc(NC(=O)C2CC2)nc2[nH]ccc12 [Example 92, N-(4-(4-((cyclopropylmethyl)sulfonamido)-2-methylphenyl)-1H-pyrrolo[2,3-b]pyridin-6-yl)cyclopropanecarboxamide] | 20 to 200 |
| N#CCCC(=O)N1CCN(c2cc(NC(=O)C3CC3)nc3[nH]ccc23)CC1 [Example 684, N-(4-(4-(3-cyanopropanoyl)piperazin-1-yl)-1H-pyrrolo[2,3-b]pyridin-6-yl)cyclopropanecarboxamide] | > 200 |
| O=C(Nc1cc(-c2ccc(CC(=O)N3CCSCC3)cc2)c2cc[nH]c2n1)C1CC1 [Example 560, N-(4-(4-(2-oxo-2-thiomorpholinoethyl)phenyl)-1H-pyrrolo[2,3-b]pyridin-6-yl)cyclopropanecarboxamide] | 20 to 200 |
| CC(C)(C)OC(=O)N1CCN(c2cc(NC(=O)C3CC3)nc3[nH]ccc23)CC1 [Example 692, tert-butyl 4-(6-(cyclopropanecarboxamido)-1H-pyrrolo[2,3-b]pyridine-4-yl)piperazin-1-carboxylate] | > 200 |
| CC(C)(C)OC(=O)N1CCC=C(c2cc(NC(=O)C3CC3)nc3[nH]ccc23)C1 [Example 460, tert-butyl 5-(6-(cyclopropanecarboxamido)-1H-pyrrolo[2,3-b]pyridin-4-yl)-3,6-dihydropyridine-1 (2H)-carboxylate] | > 200 |
| CC1CN(C(=O)c2ccc3c(c2)OCO3)CC=C1c1cc(NC(=O)C2CC2)nc2[nH]ccc12 (stereo not shown) [Example 326, N-(4-(1-(benzo[d][1,3]dioxole-5-carbonyl)-3-methyl-1,2,3,6-tetrahydropyridin-4-yl)-1H-pyrrolo[2,3-b]pyridin-6-yl)cyclopropanecarboxamide] | 20 to 200 |
| CCCCS(=O)(=O)Nc1ccc(-c2cc(NC(=O)C3CC3)nc3[nH]ccc23)cc1 [Example 6, N-(4-(4-(butylsulfonamido)phenyl)-1H-pyrrolo[2,3-b]pyridin-6-yl)cyclopropanecarboxamide] | < 20 |
| N#CCC(=O)N1C2CCC1CN(c1cc(NC(=O)C3CC3)nc3[nH]ccc13)C2 [Example 677, N-(4-(8-(2-cyanoacetyl)-3,8-diazabicyclo[3.2.1]octan-3-yl)-1H-pyrrolo[2,3-b]pyridin-6-yl)cyclopropanecarboxamide] | < 20 |
| O=C(Nc1cc(C2=CCN(C(=O)c3ccnc(F)c3F)CCC2)c2cc[nH]c2n1)C1CC1 [Example 424, N-(4-(1-(2,3-difluoroisonicotinoyl)-2,5,6,7-tetrahydro-1H-azepin-4-yl)-1H-pyrrolo[2,3-b]pyridin-6-yl)cyclopropanecarboxamide] | < 20 |
| Cc1cc(NS(=O)(=O)NCC(F)(F)F)ccc1-c1cc(NC(=O)C2CC2)nc2[nH]ccc12 [Example 227, N-(4-(2-methyl-4-((N-(2,2,2-trifluoroethyl)sulfamoyl)amino)phenyl)-1H-pyrrolo[2,3-b]pyridin-6-yl)cyclopropanecarboxamide] | 20 to 200 |
| N#Cc1ccc(S(=O)(=O)Nc2ccc(-c3nc(NC(=O)C4CC4)nc4[nH]ccc34)cc2)cn1 [Example 197, N-(4-(4-((6-cyanopyridine)-3-sulfonamido)phenyl)-7H-pyrrolo[2,3-d]pyrimidin-2-yl)cyclopropanecarboxamide] | > 200 |
| C=CCS(=O)(=O)Nc1ccc(-c2cc(NC(=O)C3CC3)nc3[nH]ccc23)cc1F [Example 71, N-(4-(4-(allylsulfonamido)-3-fluorophenyl)-1H-pyrrolo[2,3-b]pyridin-6-yl)cyclopropanecarboxamide] | < 20 |
| CCS(=O)(=O)N1CCN(C(=O)Cc2ccc(-c3cc(NC(=O)C4CC4)nc4[nH]ccc34)cc2)CC1 [Example 563, N-(4-(4-(2-(4-(ethylsulfonyl)piperazin-1-yl)-2-oxoethyl)phenyl)-1H-pyrrolo[2,3-b]pyridin-6-yl)cyclopropanecarboxamide] | 20 to 200 |

| Structure (SMILES) | IC50 [nM] |
| --- | --- |
| O=C(Nc1nc(-c2ccc(CNc3ccc(F)cc3)cc2)c2nc[nH]c2n1)C1CC1 [Example 597, N-(6-(4-(((4-fluorophenyl)amino)methyl)phenyl)-9H-purin-2-yl)cyclopropanecarboxamide] | > 200 |
| O=C(Nc1cc(-c2ccc(NS(=O)(=O)CC3CC3)c(F)c2)c2cc[nH]c2n1)C1CC1 [Example 80, N-(4-(4-((cyclopropylmethyl)sulfonamido)-3-fluorophenyl)-1H-pyrrolo[2,3-b]pyridin-6-yl)cyclopropanecarboxamide] | < 20 |
| O=C(Nc1nc(-c2ccc(NCc3ccc(Cl)cc3)cc2)c2cc[nH]c2n1)C1CC1 [Example 475, N-(4-(4-((4-chlorobenzyl)amino)phenyl)-7H-pyrrolo[2,3-d]pyrimidin-2-yl)cyclopropanecarboxamide] | < 20 |
| O=C(Nc1cc(-c2ccc(NS(=O)(=O)c3ccc(Br)cc3F)cc2)c2cc[nH]c2n1)C1CC1 [Example 32, N-(4-(4-((4-bromo-2-fluorophenyl)sulfonamido)phenyl)-1H-pyrrolo[2,3-b]pyridin-6-yl)cyclopropanecarboxamide] | 20 to 200 |
| CC1CN(C(=O)c2cccc(Nc3ccccc3)c2)CC=C1c1cc(NC(=O)C2CC2)nc2[nH]ccc12 (stereo not shown) [Example 316, N-(4-(3-methyl-1-(3-(phenylamino)benzoyl)-1,2,3,6-tetrahydropyridin-4-yl)-1H-pyrrolo[2,3-b]pyridin-6-yl)cyclopropanecarboxamide] | > 200 |
| O=C1CCN(Cc2ccc(-c3cc(NC(=O)C4CC4)nc4[nH]ccc34)cc2)CC1 [Example 585, N-(4-(4-((4-oxopiperidin-1-yl)methyl)phenyl)-1H-pyrrolo[2,3-b]pyridin-6-yl)cyclopropanecarboxamide] | < 20 |
| CCCCC(=O)N1C2CCC1CC(c1cc(NC(=O)C3CC3)nc3[nH]ccc13)C2 (stereo not shown) [Example 651, N-(4-(8-pentanoyl-8-azabicyclo[3.2.1]octan-3-yl)-1H-pyrrolo[2,3-b]pyridin-6-yl)cyclopropanecarboxamide] | > 200 |
| CC(C)(C)OC(=O)N1CC=C(c2cc(NC(=O)C3CC3)nc3[nH]ccc23)C1 [Example 461, tert-butyl 3-(6-(cyclopropanecarboxamido)-1H-pyrrolo[2,3-b]pyridin-4-yl)-2,5-dihydro-1H-pyrrole-1-carboxylate] | > 200 |
| CCC1C=C(c2cc(NC(=O)C3CC3)nc3[nH]ccc23)CC(CC)N1C(=O)CC#N (stereo not shown) [Example 409, N-(4-(1-(2-cyanoacetyl)-2,6-diethyl-1,2,3,6-tetrahydropyridin-4-yl)-1H-pyrrolo[2,3-b]pyridin-6-yl)cyclopropanecarboxamide] | < 20 |
| CC(=O)c1cccc(C(=O)N2CC=C(c3cc(NC(=O)C4CC4)nc4[nH]ccc34)C(C)C2)c1 (stereo not shown) [Example 332, N-(4-(1-(3-acetylbenzoyl)-3-methyl-1,2,3,6-tetrahydropyridin-4-yl)-1H-pyrrolo[2,3-b]pyridin-6-yl)cyclopropanecarboxamide] | > 200 |
| CCS(=O)(=O)N1CC=C(c2cc(NC(=O)C3CC3)nc3[nH]ccc23)CC1 [Example 166, N-(4-(1-(ethylsulfonyl)-1,2,3,6-tetrahydropyridin-4-yl)-1H-pyrrolo[2,3-b]pyridin-6-yl)cyclopropanecarboxamide] | 20 to 200 |
| C=CCS(=O)(=O)NC1CC=C(c2cc(NC(=O)C3CC3)nc3[nH]ccc23)CC1 (stereo not shown) [Example 160, N-(4-(4-(allylsulfonamido)cyclohex-1-en-1-yl)-1H-pyrrolo[2,3-b]pyridin-6-yl)cyclopropanecarboxamide] | < 20 |
| Cc1c(NS(=O)(=O)C2CC2)ccc(-c2cc(NC(=O)C3CC3)[n+]([O-])c3[nH]ccc23)c1C [Example 136, 6-(cyclopropanecarboxamido)-4-(4-(cyclopropanesulfonamido)-2,3-dimethylphenyl)-1H-pyrrolo[2,3-b]pyridine 7-oxide] | 20 to 200 |
| CCC1CN(C(=O)CC#N)CC=C1c1cc(NC(=O)C2CC2)nc2[nH]ccc12 (stereo not shown) [Example 294, N-(4-(1-(2-cyanoacetyl)-3-ethyl-1,2,3,6-tetrahydropyridin-4-yl)-1H-pyrrolo[2,3-b]pyridin-6-yl)cyclopropanecarboxamide] | < 20 |
| CCC1CC(c2cc(NC(=O)C3CC3)nc3[nH]ccc23)=CCN1C(=O)CC#N (stereo not shown) [Example 413, N-(4-(1-(2-cyanoacetyl)-2-ethyl-1,2,3,6-tetrahydropyridin-4-yl)-1H-pyrrolo[2,3-b]pyridin-6-yl)cyclopropanecarboxamide] | < 20 |
